Experimental data taken from ChEMBL document CHEMBL1201862, “PubChem BioAssay data set” (2004).
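Following 48 hours of exposure in 96-well plates, responses at five concentrations were used to interpolate endpoints linearly. GI50: concentration for 50% inhibition of growth.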 Activity calls are given as the source filed them. No stated cut-off is given here; in the data, active = GI50 up to about 1.1 µM and inactive = higher.

Assays:
Assay in all cases: DTP human tumour cell line panel, 48 h
[1] = system: DMS-114
[2] = system: A549
[3] = system: SN12C
[4] = system: SK-MEL-5
[5] = system: HCT-15
[6] = system: LOX IMVI
[7] = system: KM12
[8] = system: ACHN
[9] = system: SW-620
[10] = system: HCT-116
[11] = system: UO-31
[12] = system: SNB-19
[13] = system: 786-0
[14] = system: SK-MEL-2
[15] = system: HCC 2998
[16] = system: HL-60
[17] = system: NCI-H522
[18] = system: OVCAR-3
[19] = system: HOP-92
[20] = system: SF-539
[21] = system: RXF 393
[22] = system: XF498
[23] = system: SK-OV-3
[24] = system: TK-10
[25] = system: M14
[26] = system: SR
[27] = system: M19-MEL
[28] = system: UACC-62
[29] = system: HT-29
[30] = system: OVCAR-5
[31] = system: COLO 205
[32] = system: SF-268
[33] = system: SF-295
[34] = system: Malme-3M
[35] = system: SK-MEL-28
[36] = system: RPMI-8226
[37] = system: MOLT-4
[38] = system: LXFL 529
[39] = system: K562
[40] = system: KM-20L2
[41] = system: A498
[42] = system: EKVX
[43] = system: U-251
[44] = system: NCI-H23
[45] = system: IGROV-1
[46] = system: DLD-1
[47] = system: OVCAR-8
[48] = system: HOP-18
[49] = system: CCRF-CEM
[50] = system: UACC-257
[51] = system: NCI-H460
[52] = system: SNB-75
[53] = system: SNB-78
[54] = system: HOP-62
[55] = system: CAKI-1
[56] = system: NCI-H226
[57] = system: OVCAR-4
[58] = system: DMS-273

Compound: CCCN1CC=CCC1
- GI50 [1]: > 100 µM (inactive)
- GI50 [2]: > 100 µM (inactive)
- GI50 [3]: > 100 µM (inactive)
- GI50 [4]: > 100 µM (inactive)
- GI50 [5]: > 100 µM
- GI50 [6]: > 100 µM (inactive)
- GI50 [7]: > 100 µM (inactive)
- GI50 [8]: > 100 µM (inactive)
- GI50 [9]: > 100 µM (inactive)
- GI50 [10]: > 100 µM (inactive)
- GI50 [11]: > 100 µM (inactive)
- GI50 [12]: > 100 µM (inactive)
- GI50 [13]: > 100 µM (inactive)
- GI50 [14]: > 100 µM (inactive)
- GI50 [15]: > 100 µM (inactive)
- GI50 [16]: > 100 µM (inactive)
- GI50 [17]: > 100 µM (inactive)
- GI50 [18]: > 100 µM (inactive)
- GI50 [19]: > 100 µM (inactive)
- GI50 [20]: > 100 µM (inactive)
- GI50 [21]: > 100 µM (inactive)
- GI50 [22]: > 100 µM (inactive)
- GI50 [23]: > 100 µM (inactive)
- GI50 [24]: > 100 µM (inactive)
- GI50 [25]: > 100 µM (inactive)
- GI50 [26]: > 100 µM (inactive)
- GI50 [27]: > 100 µM (inactive)
- GI50 [28]: > 100 µM (inactive)
- GI50 [29]: > 100 µM (inactive)
- GI50 [30]: > 100 µM (inactive)
- GI50 [31]: > 100 µM (inactive)
- GI50 [32]: > 100 µM (inactive)
- GI50 [33]: > 100 µM (inactive)
- GI50 [34]: > 100 µM (inactive)
- GI50 [35]: > 100 µM (inactive)
- GI50 [36]: > 100 µM (inactive)
- GI50 [37]: > 100 µM (inactive)
- GI50 [38]: > 100 µM (inactive)
- GI50 [39]: < 0.01 µM (active)
- GI50 [40]: > 100 µM (inactive)
- GI50 [41]: > 100 µM (inactive)
- GI50 [42]: > 100 µM (inactive)
- GI50 [43]: > 100 µM (inactive)
- GI50 [44]: > 100 µM (inactive)
- GI50 [45]: > 100 µM (inactive)
- GI50 [46]: > 100 µM (inactive)
- GI50 [47]: > 100 µM (inactive)
- GI50 [48]: > 100 µM (inactive)
- GI50 [49]: 2.09 µM (inactive)
- GI50 [50]: > 100 µM (inactive)
- GI50 [51]: > 100 µM (inactive)
- GI50 [52]: > 100 µM (inactive)

Compound: CCc1cccc(C(C)CC)c1NC(=O)C(=O)Cc1nc2ccccc2o1 (stereo unspecified)
- GI50 [1]: > 50 µM (inactive)
- GI50 [2]: > 50 µM (inactive)
- GI50 [3]: > 50 µM (inactive)
- GI50 [4]: > 50 µM (inactive)
- GI50 [5]: > 50 µM
- GI50 [6]: > 50 µM (inactive)
- GI50 [7]: > 50 µM (inactive)
- GI50 [8]: > 50 µM (inactive)
- GI50 [9]: > 50 µM (inactive)
- GI50 [53]: > 50 µM (inactive)
- GI50 [10]: > 50 µM (inactive)
- GI50 [11]: > 50 µM (inactive)
- GI50 [12]: > 50 µM (inactive)
- GI50 [13]: > 50 µM (inactive)
- GI50 [14]: > 50 µM (inactive)
- GI50 [15]: > 50 µM (inactive)
- GI50 [16]: > 50 µM (inactive)
- GI50 [17]: > 50 µM (inactive)
- GI50 [18]: > 50 µM (inactive)
- GI50 [19]: > 50 µM (inactive)
- GI50 [20]: > 50 µM (inactive)
- GI50 [21]: > 50 µM (inactive)
- GI50 [22]: > 50 µM (inactive)
- GI50 [23]: > 50 µM (inactive)
- GI50 [24]: > 50 µM (inactive)
- GI50 [25]: > 50 µM (inactive)
- GI50 [54]: > 50 µM (inactive)
- GI50 [27]: > 50 µM (inactive)
- GI50 [55]: > 50 µM (inactive)
- GI50 [56]: 3.82 µM (inactive)
- GI50 [28]: > 50 µM (inactive)
- GI50 [29]: > 50 µM (inactive)
- GI50 [30]: > 43.8 µM (inactive)
- GI50 [31]: > 50 µM (inactive)
- GI50 [32]: > 50 µM (inactive)
- GI50 [33]: > 50 µM (inactive)
- GI50 [34]: > 50 µM (inactive)
- GI50 [35]: > 50 µM (inactive)
- GI50 [36]: > 50 µM (inactive)
- GI50 [37]: > 34.5 µM (inactive)
- GI50 [38]: > 50 µM (inactive)
- GI50 [39]: > 50 µM (inactive)
- GI50 [40]: > 50 µM (inactive)
- GI50 [57]: > 50 µM (inactive)
- GI50 [41]: > 50 µM (inactive)
- GI50 [42]: > 50 µM (inactive)
- GI50 [43]: > 50 µM (inactive)
- GI50 [44]: > 50 µM (inactive)
- GI50 [45]: > 50 µM (inactive)
- GI50 [46]: > 50 µM (inactive)
- GI50 [47]: > 50 µM (inactive)
- GI50 [49]: > 50 µM (inactive)
- GI50 [50]: > 50 µM (inactive)
- GI50 [51]: > 50 µM (inactive)
- GI50 [58]: > 50 µM (inactive)
- GI50 [52]: > 50 µM (inactive)

Compound: COC1OC(COCc2ccc(Cl)cc2)C(OCc2ccc(Cl)cc2)C1N=[N+]=[N-] (stereo unspecified)
- GI50 [1]: 24.2 µM (inactive)
- GI50 [2]: 4.32 µM (inactive)
- GI50 [3]: > 100 µM (inactive)
- GI50 [4]: 44 µM (inactive)
- GI50 [5]: > 100 µM
- GI50 [7]: > 100 µM (inactive)
- GI50 [8]: > 100 µM (inactive)
- GI50 [9]: > 100 µM (inactive)
- GI50 [53]: > 100 µM (inactive)
- GI50 [10]: > 100 µM (inactive)
- GI50 [11]: > 100 µM (inactive)
- GI50 [12]: > 100 µM (inactive)
- GI50 [13]: 4.7 µM (inactive)
- GI50 [14]: > 100 µM (inactive)
- GI50 [15]: > 100 µM (inactive)
- GI50 [17]: 85.1 µM (inactive)
- GI50 [18]: 47.8 µM (inactive)
- GI50 [19]: 97.1 µM (inactive)
- GI50 [21]: 27.1 µM (inactive)
- GI50 [22]: > 100 µM (inactive)
- GI50 [23]: > 100 µM (inactive)
- GI50 [24]: > 100 µM (inactive)
- GI50 [25]: > 100 µM (inactive)
- GI50 [26]: 36.2 µM (inactive)
- GI50 [55]: > 100 µM (inactive)
- GI50 [56]: > 100 µM (inactive)
- GI50 [28]: 15.3 µM (inactive)
- GI50 [29]: > 100 µM (inactive)
- GI50 [30]: > 100 µM (inactive)
- GI50 [31]: > 100 µM (inactive)
- GI50 [33]: > 100 µM (inactive)
- GI50 [34]: > 100 µM (inactive)
- GI50 [35]: > 100 µM (inactive)
- GI50 [36]: 19.4 µM (inactive)
- GI50 [37]: 42.2 µM (inactive)
- GI50 [38]: 95.5 µM (inactive)
- GI50 [39]: 49.8 µM (inactive)
- GI50 [40]: 8 µM (inactive)
- GI50 [57]: > 100 µM (inactive)
- GI50 [42]: > 100 µM (inactive)
- GI50 [43]: > 100 µM (inactive)
- GI50 [44]: 45.1 µM (inactive)
- GI50 [45]: 72.3 µM (inactive)
- GI50 [47]: > 100 µM (inactive)
- GI50 [48]: > 100 µM (inactive)
- GI50 [50]: 81.7 µM (inactive)
- GI50 [51]: > 100 µM (inactive)
- GI50 [52]: 73.5 µM (inactive)
